Experimental data: US10913738B2 (BRISTOL-MYERS SQUIBB COMPANY, priority 2017, dated 2021)
Where two headings read alike, the source gives them in different places.

Columns and labels:
[1] = molecular target: T1, His-GST-TVMV-hRIPK1(1-324) (Homo sapiens, UniProt Q13546); assay: RIPK1 HTRF Binding Assay
T1 construct: The coding region of human RIPK1(1-324) flanked by NdeI site at 5′ end; made in house; host or cells: Spodoptera frugiperda (Sf9) insect cells, baculovirus
T1 sequence (Q13546 1-324): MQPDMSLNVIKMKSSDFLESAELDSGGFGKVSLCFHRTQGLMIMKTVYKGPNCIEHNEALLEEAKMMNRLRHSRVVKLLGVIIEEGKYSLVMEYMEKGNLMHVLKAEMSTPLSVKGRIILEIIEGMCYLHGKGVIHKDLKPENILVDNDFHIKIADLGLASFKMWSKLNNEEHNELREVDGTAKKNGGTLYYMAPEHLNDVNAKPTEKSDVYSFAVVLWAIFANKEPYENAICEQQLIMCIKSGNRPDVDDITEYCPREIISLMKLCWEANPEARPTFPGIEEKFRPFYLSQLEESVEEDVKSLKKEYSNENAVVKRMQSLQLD

[2] = tested on: MLKL phosphorylation in HT29-L23 human colorectal adenocarcinoma cells; assay: MLKL Phosphorylation High-Content Assay; type: cell-based; conditions: Homo sapiens
Procedure, shortened: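 IC50 and Ymax obtained by 4-parameter logistic fitting of MLKL phosphorylation, measured as mean circ-ring average intensity ratio from high-content images. Staining used an anti-phospho-S358 MLKL antibody overnight at 4° C., following six-hour cell incubation at 37° C.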

[3] = x marks IC50 class 20-200 nM, read-out: RIPK1 HTRF binding 20-200 nM
[4] = x marks IC50 class 20-200 nM, read-out: pMLKL cell activity 20-200 nM
[5] = x marks IC50 class <20 nM, read-out: RIPK1 HTRF binding <20 nM
[6] = x marks IC50 class <20 nM, read-out: pMLKL cell activity <20 nM
[7] = x marks IC50 class >200 nM, read-out: pMLKL cell activity >200 nM

COc1ncc(-c2ccn3nc(N)nc3c2)cc1C(=O)NCCC(O)c1ccc(F)c(F)c1 (stereo not shown) [Example 77, 5-{2-Amino-[1,2,4]triazolo[1,5-a]pyridin-7-yl}-N-[3-(3,4-difluorophenyl)-3-hydroxypropyl]-2-methoxypyridine-3-carboxamide]
IC50 [1, 3]: 0.02 to 0.2 µM | IC50 [2, 4]: 0.02 to 0.2 µM

COc1ncc(-c2ccn3nc(N)nc3c2)cc1C(=O)NCCC(O)c1ccc(F)cc1 (stereo not shown) [Example 78, 5-{2-Amino-[1,2,4]triazolo[1,5-a]pyridin-7-yl}-N-[3-(4-fluorophenyl)-3-hydroxypropyl]-2-methoxypyridine-3-carboxamide]
IC50 [1, 3]: 0.02 to 0.2 µM | IC50 [2, 4]: 0.02 to 0.2 µM

COc1ncc(-c2ccn3nc(N)nc3c2)cc1C(=O)NCc1ccc(F)cc1OC1CCOCC1 [Example 80, 5-{2-Amino-[1,2,4]triazolo[1,5-a]pyridin-7-yl}-N-{[4-fluoro-2-(oxan-4-yloxy)phenyl]methyl}-2-methoxypyridine-3-carboxamide]
IC50 [1, 5]: < 0.02 µM | IC50 [2, 4]: 0.02 to 0.2 µM

COc1ncc(-c2ccn3nc(N)nc3c2)cc1C(=O)NCc1ccccc1OCC1CC1 [Example 81, 5-{2-Amino-[1,2,4]triazolo[1,5-a]pyridin-7-yl}-N-{[2-(cyclopropylmethoxy)phenyl]methyl}-2-methoxypyridine-3-carboxamide]
IC50 [1, 5]: < 0.02 µM | IC50 [2, 6]: < 0.02 µM

COc1ncc(-c2ccn3nc(N)nc3c2)cc1C(=O)Nc1cnn(Cc2ccccc2)c1 [Example 84, 5-{2-Amino-[1,2,4]triazolo[1,5-a]pyridin-7-yl}-N-(1-benzyl-1H-pyrazol-4-yl)-2-methoxypyridine-3-carboxamide]
IC50 [1, 3]: 0.02 to 0.2 µM | IC50 [2, 4]: 0.02 to 0.2 µM

CCc1ncc(-c2ccn3nc(N)nc3c2)cc1C(=O)NCc1cc(OC(F)(F)F)ccc1F [Example 86, 5-{2-amino-[1,2,4]triazolo[1,5-a]pyridin-7-yl}-2-ethyl-N-{[2-fluoro-5-(trifluoromethoxy)phenyl]methyl}pyridine-3-carboxamide]
IC50 [1, 5]: < 0.02 µM | IC50 [2, 4]: 0.02 to 0.2 µM

[2H]C([2H])(NC(=O)c1cc(-c2ccn3nc(N)nc3c2)cnc1OC)c1cc(OC(F)(F)F)ccc1F [Example 87, 5-{2-amino-[1,2,4]triazolo[1,5-a]pyridin-7-yl}-N-{[2-fluoro-5-(trifluoromethoxy)phenyl] (deutero)methyl}-2-methoxypyridine-3-carboxamide]
IC50 [1, 5]: < 0.02 µM | IC50 [2, 4]: 0.02 to 0.2 µM

[2H]C([2H])(NC(=O)c1cc(-c2ccn3nc(N)nc3c2)cnc1OC)c1cc(F)cc(F)c1OCC1CC1 [Example 88, 5-{2-amino-[1,2,4]triazolo[1,5-a]pyridin-7-yl}-N-{[2-(cyclopropylmethoxy)-3,5-difluorophenyl](deutero)methyl}-2-methoxypyridine-3-carboxamide]
IC50 [1, 5]: < 0.02 µM | IC50 [2, 6]: < 0.02 µM

[2H]C([2H])([2H])Oc1ncc(-c2ccn3nc(N)nc3c2)cc1C(=O)NCc1ccccc1OC(F)(F)F [Example 90, 5-{2-amino-[1,2,4]triazolo[1,5-a]pyridin-7-yl}-2-(deutero)methoxy-N-{[2-(trifluoromethoxy)phenyl]methyl}pyridine-3-carboxamide]
IC50 [1, 5]: < 0.02 µM | IC50 [2, 4]: 0.02 to 0.2 µM

[2H]C([2H])([2H])Oc1ncc(-c2ccn3nc(N)nc3c2)cc1C(=O)NCc1cc(C(F)(F)F)ccc1F [Example 91, 5-{2-amino-[1,2,4]triazolo[1,5-a]pyridin-7-yl}-N-{[2-fluoro-5-(trifluoromethyl)phenyl]methyl}-2-(deutero)methoxypyridine-3-carboxamide]
IC50 [1, 3]: 0.02 to 0.2 µM | IC50 [2, 4]: 0.02 to 0.2 µM

[2H]C([2H])([2H])Oc1ncc(-c2ccn3nc(N)nc3c2)cc1C(=O)NCc1cc(OC(F)(F)F)ccc1F [Example 92, 5-{2-amino-[1,2,4]triazolo[1,5-a]pyridin-7-yl}-N-{[2-fluoro-5-(trifluoromethoxy)phenyl]methyl}-2-(deutero)methoxypyridine-3-carboxamide]
IC50 [1, 5]: < 0.02 µM | IC50 [2, 6]: < 0.02 µM

[2H]C([2H])([2H])Oc1ncc(-c2ccn3nc(N)nc3c2)cc1C(=O)NC([2H])([2H])c1cc(OC(F)(F)F)ccc1F [Example 93, 5-{2-amino-[1,2,4]triazolo[1,5-a]pyridin-7-yl}-N-{[2-fluoro-5-(trifluoromethoxy)phenyl] (deutero)methyl}-2-(deutero)methoxypyridine-3-carboxamide]
IC50 [1, 5]: < 0.02 µM | IC50 [2, 4]: 0.02 to 0.2 µM

[2H]C([2H])([2H])Oc1ncc(-c2ccn3nc(N)nc3c2)cc1C(=O)NCc1cc(F)cc(F)c1OCC1CC1 [Example 94, 5-{2-amino-[1,2,4]triazolo[1,5-a]pyridin-7-yl}-N-{[2-(cyclopropylmethoxy)-3,5-difluorophenyl]methyl}-2-(deutero)methoxypyridine-3-carboxamide]
IC50 [1, 5]: < 0.02 µM | IC50 [2, 6]: < 0.02 µM

[2H]C([2H])([2H])c1ncc(-c2ccn3nc(N)nc3c2)cc1C(=O)NCc1cc(OC(F)(F)F)ccc1F [Example 96, 5-{2-amino-[1,2,4]triazolo[1,5-a]pyridin-7-yl}-N-{[2-fluoro-5-(trifluoromethoxy)phenyl]methyl}-2-(deutero)methylpyridine-3-carboxamide]
IC50 [1, 5]: < 0.02 µM | IC50 [2, 4]: 0.02 to 0.2 µM

COc1ncc(-c2ccn3nc(N)nc3c2)cc1C(=O)N[C@H]1C[C@@H]1c1ccccc1 [Example 100, 5-{2-amino-[1,2,4]triazolo[1,5-a]pyridin-7-yl}-2-methoxy-N-[(1S,2R)-2-phenylcyclopropyl]pyridine-3-carboxamide]
IC50 [1, 3]: 0.02 to 0.2 µM | IC50 [2, 7]: > 0.2 µM

COc1ncc(-c2ccn3nc(N)nc3c2)cc1C(=O)NCc1ccc(F)cc1OC(=O)N(C)C [Example 103]
IC50 [1, 3]: 0.02 to 0.2 µM | IC50 [2, 7]: > 0.2 µM

COc1ncc(-c2ccn3nc(N)nc3c2)cc1C(=O)NCc1ccccc1S(=O)(=O)C(C)C [Example 104, 5-{2-amino-[1,2,4]triazolo[1,5-a]pyridin-7-yl}-2-methoxy-N-{[2-(propane-2-sulfonyl)phenyl]methyl}pyridine-3-carboxamide]
IC50 [1, 5]: < 0.02 µM | IC50 [2, 7]: > 0.2 µM

COc1ncc(-c2ccn3nc(N)nc3c2)cc1C(=O)NCc1ccccc1CN1CCOCC1 [Example 105, 5-{2-amino-[1,2,4]triazolo[1,5-a]pyridin-7-yl}-2-methoxy-N-({2-[(morpholin-4-yl)methyl]phenyl}methyl)pyridine-3-carboxamide]
IC50 [1, 5]: < 0.02 µM | IC50 [2, 7]: > 0.2 µM

COc1ncc(-c2ccn3nc(N)nc3c2)cc1C(=O)NCc1ccccc1-c1ccccc1 [Example 106, 5-{2-amino-[1,2,4]triazolo[1,5-a]pyridin-7-yl}-N-({[1,1′-biphenyl]-2-yl}methyl)-2-methoxypyridine-3-carboxamide]
IC50 [1, 5]: < 0.02 µM | IC50 [2, 6]: < 0.02 µM

COc1ncc(-c2ccn3nc(N)nc3c2)cc1C(=O)Nc1cnn(C(c2ccccc2)c2ccccc2)c1 [Example 107, 5-{2-amino-[1,2,4]triazolo[1,5-a]pyridin-7-yl}-N-[1-(diphenylmethyl)-1H-pyrazol-4-yl]-2-methoxypyridine-3-carboxamide]
IC50 [1, 3]: 0.02 to 0.2 µM | IC50 [2, 7]: > 0.2 µM

COc1ncc(-c2ccn3nc(N)nc3c2)cc1C(=O)NCc1ccccc1N1CCC(C)CC1 [Example 108, 5-{2-amino-[1,2,4]triazolo[1,5-a]pyridin-7-yl}-2-methoxy-N-{[2-(4-methylpiperidin-1-yl)phenyl]methyl}pyridine-3-carboxamide]
IC50 [1, 5]: < 0.02 µM | IC50 [2, 6]: < 0.02 µM

COc1ncc(-c2ccn3nc(N)nc3c2)cc1C(=O)NCc1ccccc1Oc1ccccn1 [Example 109, 5-{2-amino-[1,2,4]triazolo[1,5-a]pyridin-7-yl}-2-methoxy-N-{[2-(pyridin-2-yloxy)phenyl]methyl}pyridine-3-carboxamide]
IC50 [1, 5]: < 0.02 µM | IC50 [2, 6]: < 0.02 µM

COc1ncc(-c2ccn3nc(N)nc3c2)cc1C(=O)NCc1ccccc1Oc1ccc(F)cc1 [Example 110, 5-{2-amino-[1,2,4]triazolo[1,5-a]pyridin-7-yl}-N-{[2-(4-fluorophenoxy)phenyl]methyl}-2-methoxypyridine-3-carboxamide]
IC50 [1, 5]: < 0.02 µM | IC50 [2, 6]: < 0.02 µM

COc1ncc(-c2ccn3nc(N)nc3c2)cc1C(=O)NCc1ccccc1S(=O)(=O)N1CCCCCC1 [Example 111, 5-{2-amino-[1,2,4]triazolo[1,5-a]pyridin-7-yl}-N-{[2-(azepane-1-sulfonyl)phenyl]methyl}-2-methoxypyridine-3-carboxamide]
IC50 [1, 5]: < 0.02 µM | IC50 [2, 7]: > 0.2 µM

COc1ncc(-c2ccn3nc(N)nc3c2)cc1C(=O)N1CCC[C@@H](Cc2cccc(F)c2)C1 [Example 114, 7-{5-[(3S)-3-[(3-fluorophenyl)methyl]piperidine-1-carbonyl]-6-methoxypyridin-3-yl}-[1,2,4]triazolo[1,5-a]pyridin-2-amine]
IC50 [1, 5]: < 0.02 µM | IC50 [2, 6]: < 0.02 µM

COc1ncc(-c2ccn3nc(N)nc3c2)cc1C(=O)NCc1ccccc1OC1CCOCC1 [Example 115, 5-{2-amino-[1,2,4]triazolo[1,5-a]pyridin-7-yl}-2-methoxy-N-{[2-(oxan-4-yloxy)phenyl]methyl}pyridine-3-carboxamide]
IC50 [1, 5]: < 0.02 µM | IC50 [2, 6]: < 0.02 µM
